Where a name gives a salt, the structure may show the parent alone.

As usually defined, the melting point is the temperature of the solid-liquid transition.

Regarding `O=C(NCC(c1ccccc1)c1ccccc1)c1c(Cl)ccc2nc(N3CCC(C(=O)O)CC3)ccc12` (as salt: acetate) [Example 25, 1-[6-Chloro-5-[[(2,2-diphenylethyl)amino]carbonyl]-2-quinolinyl]-4-piperidinecarboxylic acid, acetate], the melting point is 180 to 185 °C.
Consider `Cc1ccc2c(C(=O)NC[C@H](C)c3ccccc3)c(Cl)ccc2n1` (as salt: hydrochloride) [Example 1, 6-Chloro-2-methyl-N-[(2R)-2-phenylpropyl]-5-quinolinecarboxamide, hydrochloride], for which the melting point was 190 to 192 °C.
Take `Cc1ccc2c(C(=O)NC[C@@H](C)c3ccccc3)c(Cl)ccc2n1` (as salt: hydrochloride) [Example 2, 6-Chloro-2-methyl-N-[(2S)-2-phenylpropyl]-5-quinolinecarboxamide, hydrochloride]: the melting point lay in the range of 182 to 185 °C.
The result for `C[C@H](CC(=O)Nc1c(Cl)ccc2nc(NCCNCCO)ccc12)c1ccccc1` (as salt: hydrochloride) [Example 9, (βR)-N-[6-Chloro-2-[[2-[(2-hydroxyethyl)amino]ethyl]amino]-5-quinolinyl]-β-methyl-benzenepropanamide, dihydrochloride] reads 178 to 182 °C; that for `O=C(CCc1ccccc1Cl)Nc1c(Cl)ccc2nc(N3CCNCC3)ccc12` (as salt: hydrochloride) [Example 10, 2-Chloro-N-[6-chloro-2-(1-piperazinyl)-5-quinolinyl]-benzenepropanamide, dihydrochloride], 265 to 270 °C.
Consider `O=C(CCc1ccc(Cl)cc1Cl)Nc1c(Cl)ccc2nc(N3CCNCC3)ccc12` (as salt: hydrochloride) [Example 11, 2,4-Dichloro-N-[6-chloro-2-(1-piperazinyl)-5-quinolinyl]-benzenepropanamide, dihydrochloride], for which the melting point is 200 °C (dec.).
Turning to `O=C(CCc1ccc(Cl)cc1)Nc1c(Cl)ccc2nc(N3CCNCC3)ccc12` (as salt: hydrochloride) [Example 12, 4-Chloro-N-[6-chloro-2-(1-piperazinyl)-5-quinolinyl]-benzenepropanamide, dihydrochloride], the melting point was in the range of 183 to 188 °C.
For the molecule `C[C@H](CC(=O)Nc1c(Cl)ccc2nc(N3CC[C@H](NCCO)C3)ccc12)c1ccccc1` (as salt: hydrochloride) [Example 16, (βR)-N-[6-Chloro-2-[(3S)-3-[(2-hydroxyethyl)amino]-1-pyrrolidinyl]-5-quinolinyl]-β-methyl-benzenepropanamide, dihydrochloride], the melting point was in the range of 177 to 182 °C.
In the case of `CNCCCN(C)c1ccc2c(NC(=O)C[C@@H](C)c3ccccc3)c(Cl)ccc2n1` (as salt: trifluoroacetate) [Example 3, (βR)-N-[6-Chloro-2-[methyl[3-(methylamino)propyl]amino]-5-quinolinyl]-β-methyl-benzenepropanamide, ditrifluoroacetate], the melting point is 159 to 162 °C.
Under `C[C@H](CC(=O)Nc1c(Cl)ccc2nc(N3CCNCC3)ccc12)c1ccccc1` [Example 4, (βR)-N-[6-Chloro-2-(1-piperazinyl)-5-quinolinyl]-β-methyl-benzenepropanamide] stands 194 to 196 °C.
The result for `Cc1ccc2c(C(=O)NCCc3ccccc3)c(Cl)ccc2n1` [Example 5, 6-Chloro-2-methyl-N-(2-phenylethyl)-5-quinolinecarboxamide] reads 170 to 172 °C; that for `C[C@H](CC(=O)Nc1c(Cl)ccc2nc(CCCNCCCO)ccc12)c1ccccc1` [Example 7, (βR)-N-[6-Chloro-2-[3-[(3-hydroxypropyl)amino]propyl]-5-quinolinyl]-β-methyl-benzenepropanamide], 118 to 120 °C; that for `CC(Cc1ccc(Cl)c(Cl)c1)C(=O)Nc1cccc2ncccc12` (stereo not drawn) [Example 8, 3,4-Dichloro-α-methyl-N-5-quinolinyl-benzenepropanamide], 168 to 170 °C.
Under `C[C@H](CC(=O)Nc1c(Cl)ccc2nc(N3CC[C@H](N)C3)ccc12)c1ccccc1` [Example 13, (βR)-N-[2-[(3S)-3-Amino-1-pyrrolidinyl]-6-chloro-5-quinolinyl]-β-methyl-benzenepropanamide] stands 204 to 207 °C; under `C[C@H](CC(=O)Nc1c(Cl)ccc2nc(N3CC[C@H](NCCCO)C3)ccc12)c1ccccc1` [Example 15, (βR)-N-[6-Chloro-2-[(3S)-3-[(3-hydroxypropyl)amino]-1-pyrrolidinyl]-5-quinolinyl]-β-methyl-benzenepropanamide], 155 to 158 °C.
In turn, `O=C(CCc1ccccc1)Nc1c(Cl)ccc2nc(N3CCNCC3)ccc12` [Example 17, N-[6-Chloro-2-(1-piperazinyl)-5-quinolinyl]-benzenepropanamide] gave a melting point of 231 to 234 °C.
The result for `N[C@H]1CCN(c2ccc3c(NC(=O)CCc4ccccc4Cl)c(Cl)ccc3n2)C1` [Example 18, N-[2-[(3S)-3-Amino-1-pyrrolidinyl]-6-chloro-5-quinolinyl]-2-chlorobenzenepropanamide] reads 200 to 212 °C.
`O=C(CCc1ccccc1Cl)Nc1c(Cl)ccc2nc(N3CC[C@H](NCCO)C3)ccc12` [Example 19, 2-Chloro-N-[6-chloro-2-[(3S)-3-[(2-hydroxyethyl)amino]-1-pyrrolidinyl]-5-quinolinyl]-benzenepropanamide] registered a melting point of 180 to 182 °C.
`N[C@H]1CCN(c2ccc3c(C(=O)NCCc4ccccc4Cl)c(Cl)ccc3n2)C1` [Example 21, 2-[(3S)-3-Amino-1-pyrrolidinyl]-6-chloro-N-[2-(2-chlorophenyl)ethyl]-5-quinolinecarboxamide] showed a melting point of 196 to 198 °C.
As for `O=C(NCCc1ccccc1Cl)c1c(Cl)ccc2nc(N3CC[C@H](NCCO)C3)ccc12` [Example 22, 6-Chloro-N-[2-(2-chlorophenyl)ethyl]-2-[(3S)-3-[(2-hydroxyethyl)amino]-1-pyrrolidinyl]-5-quinolinecarboxamide], the melting point lay in the range of 170 to 172 °C.
With `O=C(NCCc1c(Cl)cccc1Cl)c1c(Cl)ccc2nc(N3CCC(C(=O)O)CC3)ccc12` [Example 23, 1-[6-Chloro-5-[[[2-(2,6-dichlorophenyl)ethyl]amino]carbonyl]-2-quinolinyl]-4-piperidinecarboxylic acid], the melting point was 262 to 264 °C.
The result for `O=C(NCCc1ccccc1Cl)c1c(Cl)ccc2nc(N3CCC(C(=O)O)CC3)ccc12` [Example 24, 1-[6-Chloro-5-[[[2-(2-chlorophenyl)ethyl]amino]carbonyl]-2-quinolinyl]-4-piperidinecarboxylic acid] reads 250 to 253 °C; that for `O=C(NCCc1ccccc1)c1c(Cl)ccc2nc(N3CCC(C(=O)O)CC3)ccc12` [Example 26, 1-[6-Chloro-5-[[(2-phenylethyl)amino]carbonyl]-2-quinolinyl]-4-piperidinecarboxylic acid], 260 to 262 °C; that for `O=C(NCCc1ccccc1F)c1c(Cl)ccc2nc(N3CCC(C(=O)O)CC3)ccc12` [Example 27, 1-[6-Chloro-5-[[[2-(2-fluorophenyl)ethyl]amino]carbonyl]-2-quinolinyl]-4-piperidinecarboxylic acid], 270 to 272 °C.
In turn, `Cc1ccccc1CCNC(=O)c1c(Cl)ccc2nc(N3CCC(C(=O)O)CC3)ccc12` [Example 28, 1-[6-Chloro-5-[[[2-(2-methylphenyl)ethyl]amino]carbonyl]-2-quinolinyl]-4-piperidinecarboxylic acid] gave a melting point of 237 to 241 °C.
`C[C@H](CNC(=O)c1c(Cl)ccc2nc(N3CCC(C(=O)O)CC3)ccc12)c1ccccc1` [Example 29, 1-[6-Chloro-5-[[[(2S)-2-phenylpropyl]amino]carbonyl]-2-quinolinyl]-4-piperidinecarboxylic acid] came in with a melting point of 150 to 153 °C.
As for `O=C(NCCc1ccc(Cl)cc1)c1c(Cl)ccc2nc(N3CCC(C(=O)O)CC3)ccc12` [Example 31, 1-[6-Chloro-5-[[[2-(4-chlorophenyl)ethyl]amino]carbonyl]-2-quinolinyl]-4-piperidinecarboxylic acid], the melting point is 231 to 234 °C.

The record behind these values is US20080058293A1, “Quinoline Derivates and Their Use in Therapy” (priority 2003, published 2008).
